For 1 compound, DC50 and Emax results are on record in patent publication US20260297060A1, “COMPOUNDS FOR THE DEGRADATION OF MUTANT BRAF” (C4 THERAPEUTICS, INC., priority 2023, published 2026).

Like-named read-outs stand apart in the source and are kept apart here. Bounds are passed on as bounds.

The experiment addresses T1, BRAF V600E (Homo sapiens, UniProt P15056+Q96SW2, V600E).
T1 construct: knock-in of the HiBiT tag to the endogenous BRAF V600E locus; host or cells: A375.10 (A375 clonal line, CRISPR HiBiT knock-in at the endogenous BRAF V600E locus)
Nature of the experiment: BRAF V600E HiBiT Degradation Assay. The class given is cell-based. The essentials:
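Endogenous HiBiT knock-in on BRAF V600E in A375 cells (clone A375.10); 11-point half-log series, top 10 μM, 2, 6 or 24 h at 37° C. Lytic HiBiT luminescence, background-subtracted, normalized to DMSO; 4-parameter fit gives DC50, Emax (residual protein) and IP (inflection point).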

T1 sequence (P15056 whole entry V600E): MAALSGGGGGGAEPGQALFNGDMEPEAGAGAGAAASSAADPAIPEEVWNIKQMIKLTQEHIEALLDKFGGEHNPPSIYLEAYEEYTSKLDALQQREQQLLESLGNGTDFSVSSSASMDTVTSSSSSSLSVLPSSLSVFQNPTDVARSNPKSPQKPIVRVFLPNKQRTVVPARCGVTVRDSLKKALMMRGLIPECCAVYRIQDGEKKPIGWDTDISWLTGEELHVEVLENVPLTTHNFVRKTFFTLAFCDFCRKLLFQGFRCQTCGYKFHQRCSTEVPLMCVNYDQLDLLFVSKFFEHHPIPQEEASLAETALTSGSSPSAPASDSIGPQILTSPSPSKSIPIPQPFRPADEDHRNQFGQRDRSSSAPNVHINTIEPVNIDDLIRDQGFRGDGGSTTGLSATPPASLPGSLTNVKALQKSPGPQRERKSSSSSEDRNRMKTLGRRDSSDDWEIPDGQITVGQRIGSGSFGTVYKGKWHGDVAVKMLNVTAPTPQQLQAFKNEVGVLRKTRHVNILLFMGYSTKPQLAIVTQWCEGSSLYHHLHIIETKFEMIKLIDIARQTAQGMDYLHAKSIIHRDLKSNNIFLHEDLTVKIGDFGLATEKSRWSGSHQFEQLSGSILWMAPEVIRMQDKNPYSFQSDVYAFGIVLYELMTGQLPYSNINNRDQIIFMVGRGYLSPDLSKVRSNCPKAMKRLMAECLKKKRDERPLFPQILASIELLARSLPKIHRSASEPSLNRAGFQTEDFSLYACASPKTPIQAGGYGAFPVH
T1 sequence (Q96SW2 whole entry): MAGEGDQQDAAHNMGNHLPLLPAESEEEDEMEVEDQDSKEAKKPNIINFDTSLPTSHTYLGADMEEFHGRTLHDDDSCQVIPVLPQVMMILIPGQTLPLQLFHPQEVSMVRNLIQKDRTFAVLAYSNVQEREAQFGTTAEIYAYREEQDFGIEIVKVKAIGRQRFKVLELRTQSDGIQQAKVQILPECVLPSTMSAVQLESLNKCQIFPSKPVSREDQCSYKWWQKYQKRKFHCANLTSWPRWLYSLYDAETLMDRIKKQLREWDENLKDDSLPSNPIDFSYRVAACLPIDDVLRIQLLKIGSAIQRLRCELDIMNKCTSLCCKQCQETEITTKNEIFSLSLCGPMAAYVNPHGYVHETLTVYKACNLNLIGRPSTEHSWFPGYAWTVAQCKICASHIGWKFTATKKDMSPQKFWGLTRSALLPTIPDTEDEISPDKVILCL
T1 sequence (Q16531 whole entry partner): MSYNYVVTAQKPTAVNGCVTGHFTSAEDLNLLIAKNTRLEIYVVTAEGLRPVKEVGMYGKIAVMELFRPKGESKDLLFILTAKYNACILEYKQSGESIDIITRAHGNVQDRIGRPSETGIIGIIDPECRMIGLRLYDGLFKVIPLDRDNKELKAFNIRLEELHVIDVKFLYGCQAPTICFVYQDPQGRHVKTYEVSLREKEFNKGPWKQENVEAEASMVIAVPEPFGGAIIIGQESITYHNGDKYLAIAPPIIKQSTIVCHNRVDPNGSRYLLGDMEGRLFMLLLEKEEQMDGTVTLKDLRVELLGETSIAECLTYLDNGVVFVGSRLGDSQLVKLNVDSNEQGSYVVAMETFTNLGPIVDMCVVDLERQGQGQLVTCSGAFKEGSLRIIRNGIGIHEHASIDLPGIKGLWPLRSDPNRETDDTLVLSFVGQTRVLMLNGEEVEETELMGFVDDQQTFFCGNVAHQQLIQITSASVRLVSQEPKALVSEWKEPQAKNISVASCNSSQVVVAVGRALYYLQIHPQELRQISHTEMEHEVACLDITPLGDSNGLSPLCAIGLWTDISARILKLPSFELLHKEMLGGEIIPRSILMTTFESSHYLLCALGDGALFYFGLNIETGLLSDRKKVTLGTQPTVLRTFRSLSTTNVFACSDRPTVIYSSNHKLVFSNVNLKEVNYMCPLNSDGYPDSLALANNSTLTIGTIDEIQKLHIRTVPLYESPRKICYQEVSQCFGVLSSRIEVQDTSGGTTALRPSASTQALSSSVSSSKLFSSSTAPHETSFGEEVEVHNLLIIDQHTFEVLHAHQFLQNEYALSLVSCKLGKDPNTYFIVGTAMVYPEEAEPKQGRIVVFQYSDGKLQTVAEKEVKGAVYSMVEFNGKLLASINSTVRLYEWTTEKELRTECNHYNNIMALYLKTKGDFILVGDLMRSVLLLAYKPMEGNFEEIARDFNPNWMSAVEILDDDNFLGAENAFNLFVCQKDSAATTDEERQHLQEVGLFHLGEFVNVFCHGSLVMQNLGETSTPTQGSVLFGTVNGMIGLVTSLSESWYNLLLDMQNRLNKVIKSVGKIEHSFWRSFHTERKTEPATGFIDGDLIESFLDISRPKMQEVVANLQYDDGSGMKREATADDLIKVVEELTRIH

In the case of `CCN(C)S(=O)(=O)Nc1ccc(F)c(Oc2ccc3ncc(C4CC5(CCN(C6CC7(C6)CN(c6cc8c(cc6F)c(N6CCC(=O)NC6=O)nn8C)C7)CC5)C4)nc3c2)c1C#N` (stereo not drawn) [Compound 177, 7-[2-cyano-3-[[ethyl(methyl)sulfamoyl]amino]-6-fluoro-phenoxy]-2-[7-[2-[3-(2,4-dioxohexahydropyrimidin-1-yl)-5-fluoro-1-methyl-indazol-6-yl]-2-azaspiro[3.3]heptan-6-yl]-7-azaspiro[3.5]nonan-2-yl]quinoxaline], the DC50 reads like this: (A375.10 cells, BRAF V600E, 2 hours, inflection point, read-out: HiBiT-Degradation A375.10 BRAF 2 hours IP) < 1000 nM; (A375.10 cells, BRAF V600E, 2 hours, read-out: HiBiT-Degradation A375.10 BRAF 2 hours DC50) < 1000 nM; (A375.10 cells, BRAF V600E, 6 hours, inflection point, read-out: HiBiT-Degradation A375.10 BRAF 6 hours IP) < 1000 nM; (A375.10 cells, BRAF V600E, 6 hours, read-out: HiBiT-Degradation A375.10 BRAF 6 hours DC50) < 1000 nM; (A375.10 cells, HiBiT, BRAF V600E, 24 hours, read-out: HiBiT-Degradation A375.10 BRAF 24 hours DC50) < 1000 nM; (A375.10 cells, HiBiT, BRAF V600E, 24 hours, read-out: HiBiT-Degradation A375.10 BRAF 24 hours IP) < 1000 nM. Also, the Emax (commonly the greatest response seen or fitted, relative to the assay's reference) is, setting by setting: (A375.10 cells, BRAF V600E, 6 hours, residual protein remaining, read-out: HiBiT-Degradation A375.10 BRAF 6 hours Emax) < 50%; (A375.10 cells, HiBiT, BRAF V600E, 24 hours, read-out: HiBiT-Degradation A375.10 BRAF 24 hours Emax) < 50%; (read-out: HiBiT-Degradation A375.10 BRAF 2 hours Emax, A375.10 cells, BRAF V600E, 2 hours, residual protein remaining) < 50%.
